Assay results: the kinase profiling compilation of Christmann-Franck et al. (2016)

Experiments:
Assay in all cases: KINOMEscan competition binding
Conditions in all cases: compound 10.0 µM
[1] = biological target: BMPR1B (human) (UniProt O00238)
[2] = biological target: CDK19 (human) (UniProt Q9BWU1)
[3] = biological target: CDKL2 (human) (UniProt Q92772)
[4] = biological target: CIT (human) (UniProt O14578)
[5] = biological target: CSNK1A1L (human) (UniProt Q8N752)
[6] = biological target: CSNK2A1 (human) (UniProt P68400)
[7] = biological target: DYRK1B (human) (UniProt Q9Y463)
[8] = tested on: EGFR (human), P00533 [747-751 del / S ins]
[9] = biological target: EPHA2 (human) (UniProt P29317)
[10] = biological target: FGFR2 (human) (UniProt P21802)
[11] = biological target: JAK2 JH1 catalytic (human) (UniProt O60674)
[12] = biological target: KIT (human) (UniProt P10721)
[13] = tested on: KIT (human), P10721 [V559D/V654A]
[14] = biological target: MAK (human) (UniProt P20794)
[15] = biological target: MAP2K3 (human) (UniProt P46734)
[16] = biological target: MAP3K9 (human) (UniProt P80192)
[17] = biological target: MAPK13 (human) (UniProt O15264)
[18] = biological target: MAPK9 (human) (UniProt P45984)
[19] = biological target: MARK3 (human) (UniProt P27448)
[20] = biological target: MINK1 (human) (UniProt Q8N4C8)
[21] = biological target: MKNK1 (human) (UniProt Q9BUB5)
[22] = biological target: MST4 (human) (UniProt Q9P289)
[23] = biological target: NEK5 (human) (UniProt Q6P3R8)
[24] = biological target: NUAK1 (human) (UniProt O60285)
[25] = biological target: PDPK1 (human) (UniProt O15530)
[26] = biological target: PHKG1 (human) (UniProt Q16816)
[27] = biological target: ROS1 (human) (UniProt P08922)
[28] = biological target: RPS6KA1 KD2 (human) (UniProt Q15418)
[29] = biological target: SGK110 (human) (UniProt P0C264)
[30] = biological target: SLK (human) (UniProt Q9H2G2)
[31] = biological target: STK32B (human) (UniProt Q9NY57)
[32] = biological target: STK39 (human) (UniProt Q9UEW8)
[33] = biological target: TGFBR1 (human) (UniProt P36897)
[34] = biological target: TNK1 (human) (UniProt Q13470)
[35] = biological target: TSSK1B (human) (UniProt Q9BXA7)
[36] = biological target: ULK1 (human) (UniProt O75385)
[37] = biological target: ULK3 (human) (UniProt Q6PHR2)
[38] = biological target: WEE1 (human) (UniProt P30291)
[39] = biological target: WEE2 (human) (UniProt P0C1S8)
Sequence of WEE2 (human) (P0C1S8 whole entry, looked up): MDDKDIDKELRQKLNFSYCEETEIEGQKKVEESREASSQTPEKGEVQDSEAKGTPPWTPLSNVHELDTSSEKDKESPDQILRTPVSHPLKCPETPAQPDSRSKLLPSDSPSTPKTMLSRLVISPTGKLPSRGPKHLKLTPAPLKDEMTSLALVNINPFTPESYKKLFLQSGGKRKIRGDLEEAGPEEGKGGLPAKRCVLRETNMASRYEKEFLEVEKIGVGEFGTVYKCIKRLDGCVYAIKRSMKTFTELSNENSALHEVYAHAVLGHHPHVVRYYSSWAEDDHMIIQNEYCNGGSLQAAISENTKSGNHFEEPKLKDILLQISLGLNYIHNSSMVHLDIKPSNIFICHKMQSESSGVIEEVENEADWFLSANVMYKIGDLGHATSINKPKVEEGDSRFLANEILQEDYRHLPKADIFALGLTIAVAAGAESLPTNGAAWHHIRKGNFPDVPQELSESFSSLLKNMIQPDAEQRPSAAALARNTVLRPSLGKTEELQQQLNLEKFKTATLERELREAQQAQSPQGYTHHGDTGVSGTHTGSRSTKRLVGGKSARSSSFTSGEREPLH

Sequence of EPHA2 (human) (P29317 whole entry, looked up): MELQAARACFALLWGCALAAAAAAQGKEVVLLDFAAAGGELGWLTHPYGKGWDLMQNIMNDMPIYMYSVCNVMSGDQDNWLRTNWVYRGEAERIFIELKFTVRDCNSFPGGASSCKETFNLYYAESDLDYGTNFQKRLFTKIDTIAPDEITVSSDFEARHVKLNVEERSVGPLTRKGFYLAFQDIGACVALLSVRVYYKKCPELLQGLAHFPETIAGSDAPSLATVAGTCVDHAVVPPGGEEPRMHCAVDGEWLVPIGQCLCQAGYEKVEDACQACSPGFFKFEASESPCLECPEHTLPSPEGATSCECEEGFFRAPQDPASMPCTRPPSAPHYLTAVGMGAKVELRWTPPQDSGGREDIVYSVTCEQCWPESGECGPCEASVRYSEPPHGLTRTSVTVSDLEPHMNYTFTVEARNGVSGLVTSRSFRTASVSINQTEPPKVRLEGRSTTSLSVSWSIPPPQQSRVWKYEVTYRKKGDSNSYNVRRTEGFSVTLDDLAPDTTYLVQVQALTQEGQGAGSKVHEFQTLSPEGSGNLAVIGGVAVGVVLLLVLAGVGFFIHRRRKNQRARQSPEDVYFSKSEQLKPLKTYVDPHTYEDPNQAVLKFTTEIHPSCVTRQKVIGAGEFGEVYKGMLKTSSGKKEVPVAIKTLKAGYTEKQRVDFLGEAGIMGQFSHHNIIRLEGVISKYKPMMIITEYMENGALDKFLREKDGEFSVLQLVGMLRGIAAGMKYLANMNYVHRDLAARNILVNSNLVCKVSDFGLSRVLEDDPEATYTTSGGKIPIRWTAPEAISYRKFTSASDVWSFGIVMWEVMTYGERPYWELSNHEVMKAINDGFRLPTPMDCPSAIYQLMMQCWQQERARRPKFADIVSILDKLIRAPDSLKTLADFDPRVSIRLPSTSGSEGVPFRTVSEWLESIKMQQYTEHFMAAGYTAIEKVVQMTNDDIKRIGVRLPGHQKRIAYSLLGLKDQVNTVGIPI
Sequence of TSSK1B (human) (Q9BXA7 whole entry, looked up): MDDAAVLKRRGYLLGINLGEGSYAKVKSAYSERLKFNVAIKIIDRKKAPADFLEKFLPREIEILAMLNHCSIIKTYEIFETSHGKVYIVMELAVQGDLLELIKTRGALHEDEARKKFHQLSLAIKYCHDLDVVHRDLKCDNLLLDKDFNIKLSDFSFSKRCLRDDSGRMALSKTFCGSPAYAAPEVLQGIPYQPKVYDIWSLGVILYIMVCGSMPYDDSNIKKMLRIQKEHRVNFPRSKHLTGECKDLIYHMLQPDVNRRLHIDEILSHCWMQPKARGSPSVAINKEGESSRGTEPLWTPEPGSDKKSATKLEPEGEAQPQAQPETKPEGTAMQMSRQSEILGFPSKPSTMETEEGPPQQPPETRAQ
Sequence of SLK (human) (Q9H2G2 whole entry, looked up): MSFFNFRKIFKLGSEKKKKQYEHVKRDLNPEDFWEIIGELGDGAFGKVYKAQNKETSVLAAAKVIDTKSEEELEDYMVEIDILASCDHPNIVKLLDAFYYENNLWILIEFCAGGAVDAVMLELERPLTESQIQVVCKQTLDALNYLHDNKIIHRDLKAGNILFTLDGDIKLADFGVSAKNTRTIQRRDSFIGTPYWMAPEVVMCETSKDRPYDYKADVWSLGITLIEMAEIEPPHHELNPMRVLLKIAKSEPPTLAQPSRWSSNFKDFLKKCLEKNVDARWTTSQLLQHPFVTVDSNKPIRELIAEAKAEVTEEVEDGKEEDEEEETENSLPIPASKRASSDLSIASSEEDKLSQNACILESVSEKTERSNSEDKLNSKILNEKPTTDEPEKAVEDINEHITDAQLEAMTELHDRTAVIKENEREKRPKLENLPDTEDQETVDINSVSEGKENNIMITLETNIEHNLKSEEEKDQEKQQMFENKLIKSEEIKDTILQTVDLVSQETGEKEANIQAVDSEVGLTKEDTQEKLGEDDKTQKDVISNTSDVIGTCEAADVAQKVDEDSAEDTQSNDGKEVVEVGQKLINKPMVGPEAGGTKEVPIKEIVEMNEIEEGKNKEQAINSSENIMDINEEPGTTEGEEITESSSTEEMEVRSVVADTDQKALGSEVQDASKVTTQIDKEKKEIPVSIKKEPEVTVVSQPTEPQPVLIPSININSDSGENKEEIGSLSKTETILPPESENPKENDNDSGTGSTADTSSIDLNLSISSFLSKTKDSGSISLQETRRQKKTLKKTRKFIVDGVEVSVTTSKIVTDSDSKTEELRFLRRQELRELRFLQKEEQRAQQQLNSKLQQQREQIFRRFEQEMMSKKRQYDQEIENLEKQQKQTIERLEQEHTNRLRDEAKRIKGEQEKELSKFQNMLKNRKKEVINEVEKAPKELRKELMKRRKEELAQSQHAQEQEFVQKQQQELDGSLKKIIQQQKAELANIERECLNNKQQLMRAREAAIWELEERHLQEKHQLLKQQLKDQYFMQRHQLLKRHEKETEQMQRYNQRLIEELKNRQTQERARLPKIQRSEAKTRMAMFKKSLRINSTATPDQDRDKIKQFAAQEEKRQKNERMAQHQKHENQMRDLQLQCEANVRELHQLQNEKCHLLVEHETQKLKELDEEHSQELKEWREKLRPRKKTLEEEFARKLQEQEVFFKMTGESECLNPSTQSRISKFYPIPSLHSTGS
Sequence of MST4 (human) (Q9P289 whole entry, looked up): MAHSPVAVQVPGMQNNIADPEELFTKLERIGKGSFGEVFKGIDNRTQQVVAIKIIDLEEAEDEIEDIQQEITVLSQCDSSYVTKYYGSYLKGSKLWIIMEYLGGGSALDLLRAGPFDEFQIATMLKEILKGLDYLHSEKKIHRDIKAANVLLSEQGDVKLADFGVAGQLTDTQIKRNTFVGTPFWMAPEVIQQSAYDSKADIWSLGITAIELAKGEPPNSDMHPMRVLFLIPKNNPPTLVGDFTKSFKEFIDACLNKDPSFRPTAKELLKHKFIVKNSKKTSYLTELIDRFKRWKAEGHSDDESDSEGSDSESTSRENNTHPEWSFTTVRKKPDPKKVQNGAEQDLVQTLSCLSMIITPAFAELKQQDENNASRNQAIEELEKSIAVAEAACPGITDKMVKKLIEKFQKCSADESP
Sequence of MINK1 (human) (Q8N4C8 whole entry, looked up): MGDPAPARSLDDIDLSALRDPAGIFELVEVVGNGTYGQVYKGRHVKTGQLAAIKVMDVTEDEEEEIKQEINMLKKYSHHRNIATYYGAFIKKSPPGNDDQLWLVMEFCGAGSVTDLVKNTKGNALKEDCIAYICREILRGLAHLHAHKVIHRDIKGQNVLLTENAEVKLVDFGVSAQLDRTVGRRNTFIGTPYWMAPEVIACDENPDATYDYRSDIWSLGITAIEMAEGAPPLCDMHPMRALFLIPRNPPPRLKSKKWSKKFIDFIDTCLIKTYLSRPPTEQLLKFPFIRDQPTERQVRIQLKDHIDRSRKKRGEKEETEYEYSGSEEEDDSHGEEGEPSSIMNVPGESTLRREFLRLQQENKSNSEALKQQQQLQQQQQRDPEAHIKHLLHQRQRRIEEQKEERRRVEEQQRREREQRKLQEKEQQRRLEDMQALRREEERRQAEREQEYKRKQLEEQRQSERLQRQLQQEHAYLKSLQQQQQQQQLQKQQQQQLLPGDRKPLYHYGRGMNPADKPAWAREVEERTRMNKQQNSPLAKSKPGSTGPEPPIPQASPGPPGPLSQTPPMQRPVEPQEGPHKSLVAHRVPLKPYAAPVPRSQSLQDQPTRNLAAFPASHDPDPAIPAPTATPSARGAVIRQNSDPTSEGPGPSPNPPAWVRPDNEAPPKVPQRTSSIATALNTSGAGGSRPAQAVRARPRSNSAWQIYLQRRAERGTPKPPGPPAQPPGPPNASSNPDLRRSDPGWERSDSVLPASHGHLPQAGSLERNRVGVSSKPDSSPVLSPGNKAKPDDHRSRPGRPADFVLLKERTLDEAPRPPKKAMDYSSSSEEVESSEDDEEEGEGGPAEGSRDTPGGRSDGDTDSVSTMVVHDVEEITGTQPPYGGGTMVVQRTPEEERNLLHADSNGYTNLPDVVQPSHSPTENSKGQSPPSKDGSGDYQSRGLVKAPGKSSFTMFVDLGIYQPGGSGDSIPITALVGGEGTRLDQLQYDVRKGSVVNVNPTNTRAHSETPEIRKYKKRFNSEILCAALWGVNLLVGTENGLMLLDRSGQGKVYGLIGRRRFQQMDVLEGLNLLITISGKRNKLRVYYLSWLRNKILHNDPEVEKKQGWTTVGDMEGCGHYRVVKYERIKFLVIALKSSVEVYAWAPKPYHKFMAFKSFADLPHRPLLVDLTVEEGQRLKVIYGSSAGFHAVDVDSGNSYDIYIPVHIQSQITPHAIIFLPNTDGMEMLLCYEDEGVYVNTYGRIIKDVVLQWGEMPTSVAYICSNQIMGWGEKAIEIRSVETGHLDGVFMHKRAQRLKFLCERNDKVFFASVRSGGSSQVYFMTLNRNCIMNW

SMILES | kinase still bound, per cent of control [1] [%] | kinase still bound, per cent of control [2] [%] | kinase still bound, per cent of control [3] [%] | kinase still bound, per cent of control [4] [%] | kinase still bound, per cent of control [5] [%] | kinase still bound, per cent of control [6] [%] | kinase still bound, per cent of control [7] [%] | kinase still bound, per cent of control [9] [%] | kinase still bound, per cent of control [10] [%] | kinase still bound, per cent of control [11] [%] | kinase still bound, per cent of control [14] [%] | kinase still bound, per cent of control [15] [%] | kinase still bound, per cent of control [16] [%] | kinase still bound, per cent of control [17] [%] | kinase still bound, per cent of control [18] [%] | kinase still bound, per cent of control [19] [%] | kinase still bound, per cent of control [20] [%] | kinase still bound, per cent of control [21] [%] | kinase still bound, per cent of control [22] [%] | kinase still bound, per cent of control [23] [%] | further results
C=CC(=O)Nc1cc(-n2c(=O)ccc3cnc4ccc(-c5cn[nH]c5)cc4c32)ccc1C | 73 | 100 | 17 | 42 | 90 | 4.6 | 1.8 | 85 | 94 | 16 | 94 | 8.6 | 86 | 76 | 9.6 | 100 | 31 | 39 | 79 | 100 | kinase still bound, per cent of control [8]: 63%; kinase still bound, per cent of control [12]: 65%; kinase still bound, per cent of control [13]: 100%; kinase still bound, per cent of control [24]: 11%; kinase still bound, per cent of control [25]: 100%; kinase still bound, per cent of control [26]: 58%; kinase still bound, per cent of control [27]: 100%; kinase still bound, per cent of control [28]: 94%; kinase still bound, per cent of control [29]: 100%; kinase still bound, per cent of control [30]: 100%; kinase still bound, per cent of control [31]: 100%; kinase still bound, per cent of control [32]: 64%; kinase still bound, per cent of control [33]: 83%; kinase still bound, per cent of control [34]: 73%; kinase still bound, per cent of control [35]: 87%; kinase still bound, per cent of control [36]: 87%; kinase still bound, per cent of control [37]: 97%; kinase still bound, per cent of control [38]: 100%; kinase still bound, per cent of control [39]: 95%
O=C1NC(=O)/C(=C/c2ccc3nccc(-c4ccncc4)c3c2)S1 | 3.7 | 4.2 | 64 | 4.4 | 55 | 7.9 | 1.2 | 95 | 100 | 31 | 100 | 35 | 76 | 100 | 39 | 100 | 49 | 84 | 90 | 100 | kinase still bound, per cent of control [8]: 84%; kinase still bound, per cent of control [13]: 100%; kinase still bound, per cent of control [24]: 100%; kinase still bound, per cent of control [25]: 62%; kinase still bound, per cent of control [26]: 31%; kinase still bound, per cent of control [27]: 78%; kinase still bound, per cent of control [28]: 19%; kinase still bound, per cent of control [29]: 100%; kinase still bound, per cent of control [30]: 0.3%; kinase still bound, per cent of control [31]: 100%; kinase still bound, per cent of control [32]: 71%; kinase still bound, per cent of control [33]: 20%; kinase still bound, per cent of control [34]: 52%; kinase still bound, per cent of control [35]: 2.2%; kinase still bound, per cent of control [36]: 74%; kinase still bound, per cent of control [37]: 39%; kinase still bound, per cent of control [38]: 100%; kinase still bound, per cent of control [39]: 95%
CNC(=O)c1cc(Oc2ccc(NC(=O)Nc3ccc(Cl)c(C(F)(F)F)c3)cc2)ccn1 | 98 | 1.4 | 0.3 | 17 | 98 | 100 | 92 | 18 | 14 | 80 | 41 | 97 | 88 | 7.6 | 19 | 74 | 46 | 2.1 | 100 | 90 | kinase still bound, per cent of control [12]: 0%; kinase still bound, per cent of control [24]: 84%; kinase still bound, per cent of control [25]: 76%; kinase still bound, per cent of control [26]: 90%; kinase still bound, per cent of control [27]: 83%; kinase still bound, per cent of control [28]: 100%; kinase still bound, per cent of control [29]: 94%; kinase still bound, per cent of control [30]: 15%; kinase still bound, per cent of control [31]: 100%; kinase still bound, per cent of control [32]: 100%; kinase still bound, per cent of control [33]: 100%; kinase still bound, per cent of control [34]: 37%; kinase still bound, per cent of control [35]: 78%; kinase still bound, per cent of control [36]: 100%; kinase still bound, per cent of control [37]: 92%; kinase still bound, per cent of control [38]: 100%; kinase still bound, per cent of control [39]: 87%
